Experimental data from the supplement of paper PMC10307832.

Tests used:
Test in all cases: relative viability (nuclei count vs DMSO), 5 days (fraction); higher = more cells survive
[1] = compound: C[C@@H](N)c1ccc(C(=O)Nc2ccnc3[nH]ccc23)cc1 + CCNC(=O)c1noc(-c2cc(C(C)C)c(O)cc2O)c1-c1ccc(CN2CCOCC2)cc1 [Luminespib] (partner 0.01 µM)
Procedure, shortened: (§1)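 Relative viability divides the nuclei count in treated wells by that in vehicle wells. Lung cancer cell lines were seeded in 1536-well plates, dosed by pin tool the next day, and fixed and stained after 5 days in one step with final 0.05% Triton X-100, 1% formaldehyde and 1 ug/ml Hoechst. Dosing was a single drug or a fixed anchor-drug dose plus five library-drug doses (not always all listed) in √10 steps, and values are medians of duplicate plates imaged at 4×.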

[2] = compound: C1CNCCC1C2=CC(=NN2)C3=CC=NC=C3 + CC1(C)CCC(c2ccc(Cl)cc2)=C(CN2CCN(c3ccc(C(=O)NS(=O)(=O)c4ccc(N[C@H](CCN5CCOCC5)CSc5ccccc5)c(S(=O)(=O)C(F)(F)F)c4)cc3)CC2)C1 [Navitoclax] (partner 0.5 µM)
Procedure, shortened: as §1

[3] = compound: C[C@@H](N)c1ccc(C(=O)Nc2ccnc3[nH]ccc23)cc1 + CS(=O)(=O)N1CCN(Cc2cc3nc(-c4cccc5[nH]ncc45)nc(N4CCOCC4)c3s2)CC1 [Pictilisib] (partner 1 µM)
Procedure, shortened: as §1

Cell Line | relative viability ([1]; first compound 0.04 µM) | relative viability ([1]; first compound 0.1265 µM) | relative viability ([1]; first compound 0.4 µM) | relative viability ([1]; first compound 1.265 µM) | relative viability ([1]; first compound 4 µM) | relative viability ([2]; first compound 0.08 µM) | relative viability ([2]; first compound 0.8 µM) | relative viability ([2]; first compound 2.53 µM) | relative viability ([2]; first compound 8 µM) | relative viability ([3]; first compound 0.04 µM) | relative viability ([3]; first compound 0.1265 µM) | relative viability ([3]; first compound 0.4 µM) | relative viability ([3]; first compound 1.265 µM) | relative viability ([3]; first compound 4 µM)
201T | 1.02 | 1.02 | 1.08 | 1.14 | 1.14 | 1.25 | 1.15 | 1.2 | 1.18 | 0.702 | 0.636 | 0.685 | 0.519 | 0.788
A549 |  |  |  |  |  | 1.1 | 1.27 | 1.38 | 1.3 | 0.596 | 0.526 | 0.597 | 0.525 | 0.428
A-427 | 0.79 | 0.898 | 0.976 |  | 0.804 | 0.954 | 0.913 | 1.02 | 0.93 | 0.658 | 0.766 | 0.66 |  | 0.793
ABC-1 | 1 | 0.678 | 0.529 | 0.553 | 0.811 |  |  |  |  | 0.804 | 0.832 | 1.07 | 0.484 | 0.769
BEN | 0.369 | 0.332 | 0.44 | 0.29 | 0.286 | 0.0512 | 0.0642 | 0.0601 | 0.0843 | 0.537 | 0.454 | 0.611 | 0.617 | 0.44
CAL-12T | 0.297 | 0.421 | 0.322 | 0.432 | 0.22 | 1.11 | 1.45 | 1.29 | 1.43 | 0.544 | 0.76 | 0.66 |  | 0.437
COR-L23 | 0.788 | 0.804 | 0.644 | 0.437 | 0.161 | 0.905 | 1.3 | 1.1 | 1.03 | 0.621 | 0.867 | 0.799 | 0.591 | 0.562
COR-L 105 | 0.733 | 0.635 | 0.596 | 0.559 | 0.346 | 0.751 | 0.706 | 0.774 | 0.788 | 0.435 | 0.297 | 0.399 | 0.255 | 0.309
Calu-6 |  |  |  |  |  | 0.879 | 0.86 | 0.914 | 0.87 | 0.952 | 0.988 | 0.854 | 0.928 | 0.75
ChaGo-K-1 | 0.554 | 0.641 | 0.629 | 0.562 | 0.436 | 0.861 | 1.29 | 0.682 | 1.01 | 0.777 | 0.937 | 0.988 |  | 0.696
EBC-1 |  |  |  |  |  | 0.463 | 0.517 | 0.5 | 0.392 | 0.38 | 0.408 | 0.347 | 0.473 | 0.593
EKVX | 0.943 | 0.987 | 1.08 | 0.879 | 0.942 | 1.03 | 0.713 | 1.07 | 0.96 | 0.582 | 0.489 | 0.532 | 0.467 | 0.443
EMC-BAC-2 | 1.15 | 1.22 | 1.25 | 1.09 | 1.04 | 1.11 | 1.37 | 1.25 | 1.14 | 0.491 | 0.575 | 0.531 | 0.476 | 0.411
EPLC-272H | 0.402 | 0.602 | 0.188 | 0.491 | 0.405 | 1.12 | 1.22 | 1.19 | 1.17 | 0.387 | 0.34 | 0.339 |  | 0.297
H3255 | 0.778 | 1.04 | 1 | 0.763 | 0.944 | 0.52 | 0.444 | 0.738 | 0.537 | 0.496 | 0.576 | 0.608 | 0.581 | 0.515
HARA |  | 0.738 | 0.675 |  | 0.608 | 1.13 | 1.14 | 1.17 | 1.2 | 0.634 | 0.517 | 0.432 | 0.475 | 0.292
HCC-15 | 0.391 | 0.329 | 0.291 |  | 0.153 | 0.756 | 0.785 | 0.706 | 0.662 | 0.821 | 0.705 | 0.796 |  | 0.731
HCC-44 | 0.922 | 1.11 | 1.31 | 1.21 | 0.486 | 0.931 | 1 | 1.07 | 0.971 | 0.789 | 0.508 | 0.656 | 0.571 | 0.482
HCC-78 |  |  |  |  |  | 0.729 |  | 0.836 | 0.884 | 0.509 | 0.318 | 0.297 | 0.137 | 0.254
HCC-366 |  |  |  |  |  | 1.02 | 1.12 | 1.07 | 1.08 | 0.113 | 0.137 | 0.163 | 0.132 | 0.0875
HCC-827 | 0.786 | 0.686 | 0.698 | 0.848 | 0.608 | 0.972 | 0.995 | 0.991 | 0.876 | 1.22 | 1.27 | 1.12 | 0.978 | 0.783
HOP-62 | 0.732 | 0.812 | 0.94 | 0.893 | 0.817 | 1.06 | 1.21 | 1.13 | 1.03 | 0.539 | 0.413 | 0.827 | 0.0717 | 0.887
IA-LM |  |  |  |  |  | 0.919 | 0.749 | 0.687 | 0.611 | 0.456 | 0.484 | 0.752 | 0.676 | 0.835
LC-2-ad | 0.864 | 0.987 | 0.837 |  | 0.659 | 0.721 | 0.5 | 0.503 | 0.35 | 0.641 | 0.43 | 0.696 | 0.592 | 0.372
LCLC-97TM1 | 0.828 | 0.826 | 1.06 | 0.908 | 0.857 | 0.432 | 0.385 | 0.396 | 0.68 | 0.257 | 0.176 | 0.259 | 0.106 | 0.421
LCLC-103H | 1.15 | 0.914 | 0.956 | 0.911 | 0.69 |  |  |  |  | 0.756 | 0.616 | 0.54 | 0.482 | 0.584
LK-2 | 0.202 |  | 0.218 |  | 0.238 | 0.674 | 1.25 | 0.843 | 0.87 | 0.79 | 0.537 | 0.739 |  | 0.822
